Experiments:
[1] = test system: EEG amplitude in anesthetized dogs; details: dog, in vivo
[2] = test system: seizure activity on the EEG; details: dog, in vivo

With `C1CCc2nnnn2CC1` [pentylenetetrazole] the “EEG amplitude, left hemisphere (occipital frontal leads)” value [1] was 35.6 ± 8.0 μV, the “EEG amplitude, right hemisphere (occipital frontal leads)” value [1] was 31.5 ± 8.0 μV and the “increase in EEG amplitude” value [1] was 344%. For the same compound, the “cumulative dose at which seizure activity was observed” value [2] was 11 to 41 mg/kg and the “dogs with seizure activity after pentylenetetrazole” value [2] was “Seizure activity was observed in all the dogs”.

— US5466700A (priority 1993, dated 1995)
